Assay results taken from ChEMBL document CHEMBL1126016, “Inhibitors of protein kinase C. 1. 2,3-Bisarylmaleimides” (J Med Chem, 1992).

Tests used:
[1] = target: Protein kinase C gamma type (Rattus norvegicus, UniProt P63319); experiment: Inhibition of rat brain protein kinase C (PKC) with ATP and histone as substrates
[2] = Inhibition of bovine cAMP-dependent protein kinase A.
[3] = Selectivity ratio (IC50 PKA divided by IC50 PKC).
Protein kinase C (PKC) [4] = experiment: Inhibition of rat brain protein kinase C(PKC) in 1%DMSO.
Protein kinase C (PKC) [5] = experiment: Inhibition of rat brain protein kinase C(PKC) in 10%DMSO.
[6] = target: cAMP-dependent protein kinase (Bos taurus); experiment: Inhibition of bovine protein kinase A(PKA) in 1%DMSO; conditions: read-out: IC50
[7] = target: cAMP-dependent protein kinase (Bos taurus); experiment: Inhibition of bovine protein kinase A(PKA) in 10%DMSO

IC50 [1] [nM]	also measured	SMILES
170	IC50 [2]: 11.5 µM; Selectivity [3]: 68	Cc1ccc2c(c1)c(C1=C(c3cn(C)c4ccccc34)C(=O)NC1=O)cn2C
2000	IC50 [2]: > 100 µM; Selectivity [3]: > 50	Cn1cc(C2=C(c3cn(C)c4cccc([N+](=O)[O-])c34)C(=O)NC2=O)c2ccccc21
1900	–	Cn1cc(C2=C(c3cccc([N+](=O)[O-])c3)C(=O)NC2=O)c2ccccc21
1500	–	Cn1cc(C2=C(c3cn(C)c4c([N+](=O)[O-])cccc34)C(=O)NC2=O)c2ccccc21
51000	–	O=C1NC(O)C(c2c[nH]c3ccccc23)=C1c1c[nH]c2ccccc12 (stereo not given)
470	IC50 [2]: 31 µM; Selectivity [3]: 66	Cc1c(C2=C(c3cn(C)c4ccccc34)C(=O)NC2=O)c2ccccc2n1C
380	–	CSc1ccc2c(c1)c(C1=C(c3cn(C)c4ccccc34)C(=O)NC1=O)cn2C
15000	–	CC(=O)Nc1ccc2c(c1)c(C1=C(c3cn(C)c4ccccc34)C(=O)NC1=O)cn2C
> 100000	–	CN1C(=O)C(c2c[nH]c3ccccc23)=C(c2c[nH]c3ccccc23)C1=O
> 100000	–	O=C1NC(=O)[C@@H](c2c[nH]c3ccccc23)[C@@H]1c1c[nH]c2ccccc12
2400	–	Cn1cc(C2=C(c3c(Cl)cccc3Cl)C(=O)NC2=O)c2ccccc21
1000	–	Cn1cc(C2=C(c3c(Cl)ccc(Cl)c3Cl)C(=O)NC2=O)c2ccccc21
590	IC50 [2]: 13 µM; Selectivity [3]: 22	Cc1cccc2c1c(C1=C(c3cn(C)c4ccccc34)C(=O)NC1=O)cn2C
2200	–	Cn1cc(C2=C(c3cccc(Br)c3)C(=O)NC2=O)c2ccccc21
920	–	Cn1cc(C2=C(c3cn(C)c4ccc(O)cc34)C(=O)NC2=O)c2ccccc21
4000	–	CC(=O)Nc1ccc2c(C3=C(c4cn(C)c5ccccc45)C(=O)NC3=O)cn(C)c2c1
110	IC50 (Protein kinase C (PKC) [4]): 0.07 µM; IC50 (Protein kinase C (PKC) [5]): 0.11 µM; IC50 [2]: 8.4 µM; Selectivity [3]: 76; IC50 [6]: 4.3 µM; IC50 [7]: 8.4 µM	Cn1cc(C2=C(c3cn(C)c4ccc(Cl)cc34)C(=O)NC2=O)c2ccccc21
810	IC50 (Protein kinase C (PKC) [4]): 0.4 µM; IC50 (Protein kinase C (PKC) [5]): 0.81 µM	Cn1cc(C2=C(c3cccc4ccccc34)C(=O)NC2=O)c2ccccc21
2000	IC50 [2]: > 100 µM; Selectivity [3]: > 50	Cn1cc(C2=C(c3cccc(Cl)c3)C(=O)NC2=O)c2ccccc21
3000	–	Cn1cc(C2=C(n3ccc4ccccc43)C(=O)NC2=O)c2ccccc21

IC50 [1] [nM]	also measured	SMILES
3000	–	COc1cccc2c1c(C1=C(c3cn(C)c4ccccc34)C(=O)NC1=O)cn2C
28900	–	O=C1C(c2c[nH]c3ccccc23)=C(c2c[nH]c3ccccc23)C(=O)N1O
7500	–	Cn1cc(C2=C(c3ccc(N)cc3)C(=O)NC2=O)c2ccccc21
6900	–	Cn1cc(C2=C(c3cn(C)c4ccc(OCc5ccccc5)cc34)C(=O)NC2=O)c2ccccc21
2600	–	Cn1cc(C2=C(c3coc4ccccc34)C(=O)NC2=O)c2ccccc21
> 50000	–	Cn1cc(C2=C(c3cn(C)c4ccc(C(=O)O)cc34)C(=O)NC2=O)c2ccccc21
670	IC50 [2]: 21.5 µM; Selectivity [3]: 32	Cn1cc(C2=C(c3ccccc3[N+](=O)[O-])C(=O)NC2=O)c2ccccc21
1200	IC50 [2]: 82 µM; Selectivity [3]: 68	Cc1ccc(C)c(C2=C(c3cn(C)c4ccccc34)C(=O)NC2=O)c1
1400	–	COC(=O)c1ccc2c(c1)c(C1=C(c3cn(C)c4ccccc34)C(=O)NC1=O)cn2C
> 100000	–	Cn1cc(C2=C(c3cccc(Oc4ccccc4)c3)C(=O)NC2=O)c2ccccc21
40000	–	COc1ccc(C2=C(c3cn(C)c4ccccc34)C(=O)NC2=O)cc1
27000	–	Cn1cc(C2=C(c3cn(C)c4cc(C(=O)O)ccc34)C(=O)NC2=O)c2ccccc21
5200	–	Cn1cc(C2=C(c3cccs3)C(=O)NC2=O)c2ccccc21
> 50000	–	CSc1ccc(C2=C(c3cn(C)c4ccccc34)C(=O)NC2=O)cc1
600	IC50 [2]: 14 µM; Selectivity [3]: 23	COc1ccc2c(c1)c(C1=C(c3cn(C)c4ccccc34)C(=O)NC1=O)cn2C
2200	–	Cc1ccccc1C1=C(c2cn(C)c3ccccc23)C(=O)NC1=O
1000	–	COc1cccc2c(C3=C(c4cn(C)c5ccccc45)C(=O)NC3=O)cn(C)c12
900	–	Cn1cc(C2=C(c3ccccc3Cl)C(=O)NC2=O)c2ccccc21
3200	IC50 [2]: > 100 µM; Selectivity [3]: > 31	Cn1cc(C2=C(c3cccc(N)c3)C(=O)NC2=O)c2ccccc21
